{"source": "patent US20250032425A1", "about": "“FIRST IN CLASS USE OF ESTROGEN RECEPTOR BETA AGONISTS IN TREATING ANGELMAN SYNDROME AND RELEVANT AUTISM SPECTRUM DISORDERS” (BROWN UNIVERSITY, priority 2023, published 2025)", "molecules": {"B1": {"name": "BDNF: brain-derived neurotrophic factor, human recombinant; neurotrophin that belongs to NGF-beta family (protein, UniProt P23560 19-247, looked up)", "Neurotrophic factor BDNF …": "APMKEANIRGQGGLAYPGVRTHGTLESVNGPKAGSRGLTSLADTFEHVIEELLDEDQKVRPNEENNKDADLYTSRVMLSSQVPLEPPLLFLLEEYKNYLDAANMSMRVRRHSDPARRGELSVCDSISEWVTAADKKTAVDMSGGTVTVLEKVPVSKGQLKQYFYETKCNPMGYTKEGCRGIDKRHWNSQCRTTQSYVRALTMDSKKRIGWRFIRIDTSCVCTLTIKRGR"}}, "format_in_all_cases": "cell-based, human", "key": {"[1]": {"test_system": "UBE3A-deficient iOPCs and iOLs", "experiment": "Oligodendrocyte differentiation of UBE3A-deficient iOPCs into iOLs (immunoblotting of Ki67, MAG, CNPase)", "conditions": "UBE3A-deficient iOLs; AC-186 (10 µM), clemastine (2.5 μM); 3 days", "quoted_text": "FIG. 25C: Immunoblotting was conducted to assess the impact of UBE3A depletion on ESR-β expression during oligodendrocyte differentiation. Protein levels of ESR-β in UBE3A-deficient iOPCs and subsequently differentiated iOLs were quantified, normalized against the loading control GAPDH, and expressed relative to the iOPC+siNC control condition (set at 1.0). […] Levels of Ki67 and Myelin Associated Glycoprotein (MAG) were measured in UBE3A-deficient iOPCs and iOLs differentiated from them, normalized against GAPDH, and compared to the iOPC+siNC condition. n=4 experiments. FIG. 25E: Immunoblotting to examine the role of UBE3A for OPC self-renewal and oligodendrocyte differentiation across different developmental stages. Expression of maturation and myelination markers (MBP, MAG, PLP1, CNPase) was quantified following UBE3A depletion timed from iOPCs to pre-iOLs, normalized against TUBB1. and compared to the iOPC+siNC control condition (set at 1.0). n=4 experiments."}, "[2]": {"test_system": "AS iOPCs differentiated into iOLs", "experiment": "Differentiation of AS patient-derived iOPCs into iOLs (MAG, CNPase, MBP)", "conditions": "AC-186 10 μM or clemastine 2.5 μM, 72 hours"}, "UBE3A-deficient iOPCs": {"test_system": "UBE3A-deficient iOPCs", "experiment": "Ki67 (and PCNA) immunoblotting in UBE3A-knockdown iOPCs: compound screen and rescue of proliferation", "conditions": "for effect of AC-186 to enhance proliferation of iOPCs with UBE3A knockdown (Ki67): MEK inhibitor with AC-186 co-treatment (10 μM, 24 hours); for impact of UBE3A loss on OPC proliferation (FIG. 18F, 19G): ERβ activators of different structural classes; for restoration of Ki67 expression in compound screen: Ki67 immunoblotting normalized to siNC=1.0", "method": "Given the scarcity of knowledge regarding UBE3A function in oligodendrocyte biology, a comprehensive exploration of various cellular functions was performed, leveraging the high-throughput capabilities of the iPSC-based methodology (e.g., as described herein). We selected over 45 compounds with known targeted cellular actions (Table 1). These were chosen based on their documented effects on UBE3A, their ability to promote oligodendrocyte development and myelination, or their protective 10 roles in neural tissue. UBE3A expression was modulated using siRNA, achieving a controlled reduction that decreased OPC proliferation by approximately 50%, as evidenced by Ki67 protein levels.\niPSC Culturing and Generation of Induced Human Brain Cells Including Oligodendroglia, Neurons (IN), Astrocytes (iAs) and Microglia (iMG) The generation of iPSC-derived human oligodendrocyte precursor cells (iOPCs) was carried out according to a previously published protocol by Vulakh and Yang et al., 2023 (Characterizing the Neuron-Glial Interactions by the Co-cultures of Human iPSC-Derived Oligodendroglia and Neurons. Methods Mol. Biol. 2683), which itself was a modification of an earlier protocol by Assetta et al., 2020 (Generation of Human Neurons and Oligodendrocytes from Pluripotent Stem Cells for Modeling Neuron-Oligodendrocyte Interactions. J Vis Exp.). The process began with the control iPSCs, which is a well-characterized control reference line acquired from the NIH-funded iPSC Neurodegenerative Disease Initiative (INDI, (Ramos, D. M., Skarnes, W. C., Singleton, A. B., Cookson, M. R., and Ward, M. E. (2021). Tackling neurodegenerative diseases with genomic engineering: A new stem cell initiative from the NIH. Neuron 109, 1080-1083. 10.1016/j.neuron.2021.03.022)), distributed by the Jackson Laboratory. These iPSCs were maintained in mTeSR plus medium (StemCell Technologies, #05825) and expanded in Stem Flex medium (Fisher Scientific. #A3349401) for the induction of neural progenitor cells (INPC). The iNPCs were derived by treating iPSCs with a commercial SMAD inhibitor medium (StemCell Technologies, #08582) for 7 days (Week 1). Subsequently, NPCs were further induced to become OPCs by a 7-day incubation (Week 2) with a chemically-defined OPC medium: DMEM/F12 medium (Thermo Fisher, #11320033) supplemented by 10 ng/ml PDGF-AA (R&D Systems, #221-AA-025), 1 μM SAG (Tocris, #4366), […] N-Acetyl-Cysteine (Millipore Sigma, #A9165-5G), 20 ng/mL bFGF (R&D Systems, #233-FB-025/CF), 1% N2 supplement (Thermo Fisher, #17502048), and 1% B27 supplement (Thermo Fisher, #17504044). […] The additional incubation with OL medium for 7-14 days (Week 4-5) yielded mature, myelinating OLs.\n(§1) The siRNAs targeting UBE3A (Thermo Fisher, #4390815 and #4390816), estrogen receptors (Thermo Scientific #145909 for ESRβ, #145539 for ESRα, and #4390824 for GPER), and negative control (Thermo Scientific, #AM4615) were obtained commercially. The 10-20 nM final concentration was used with Lipofectamine RNAiMAX transfection reagent (Thermo Scientific #13778075) and incubated for at least 48 hours before the treatments of therapeutic compounds or other reagents.\nCells were collected by fast spin down in centrifuge tubes before lysis in RIPA buffer (ThermoFisher, #89901) supplemented with proteinase inhibitor cocktail (Sigma-Aldrich, #5892791001) on ice. Lysates were then spun down at 15000 rpm for 10 mins, the supernatant was collected and mixed with 4× Laemmle sample buffer (Bio-Rad, #1610747) and cooked 10 mins before SDS-PAGE and transferred with Bio-Rad fast transfer system, the membranes were blocked for one hour in 1× Tris Buffered Saline (TBS) with 1% Casein buffer (Bio-Rad, #1610782) and incubated with primary antibodies overnight at 4 degrees. […]"}, "[3]": {"test_system": "ERK/MAPK signaling pathway", "experiment": "ERK/MAPK and S6 activation in iOPCs by immunoblotting (phosphorylated to total ratio)", "conditions": "MEK inhibitor added to UBE3A-depleted OPCs with AC-186", "excerpt": "FIGS. 20A-20E depict the identification of ESR-β signaling pathway in regulating OPC proliferation impaired by UBE3A depletion. FIG. 20A: Immunofluorescence to track estrogen receptor (ESR) expression in OPCs, by staining of all 3 ESRs, ESR-α, ESR-β and GPER (top panels), in iOPCs co-labeled with UBE3A (middle panels) and DAPI; scale bar, 100 μm. […] FIG. 20B: Immunoblotting to assess OPC expression of individual ESRs, by analyzing protein levels of ESR-α, ESR-β and GPER in iOPCs treated with siNC or siUBE3A, normalized to GAPDH and expressed relative to the siNC condition (set as 1.0). After treatment with siUBE3A, expression of ESR-β was decreased, while expression of GPER was increased. n=5-6 experiments. FIG. 20C: The activation of the ERK/MAPK signaling pathway in OPCs, particularly downstream of ESR-β, was analyzed in iOPCs subjected to 6 knockdown conditions: siNC, siUBE3A, siESRα, siESRβ, and combinations of siUBE3A with siESRα or siESRβ. These were followed by treatment with vehicle control or the ESR-β agonist AC-186 (10 μM, 30 min). The activation of ERK and its substrate S6 was determined by the ratio of phosphorylated to total ERK and S6 levels, adjusted relative to the vehicle control group (standard value of 1.0). ERK phosphorylation and S6 phosphorylation was decreased in cells treated with siESRβ, or siESRβ and siUBE3A combined. n=3 experiments. FIG. 20D: Immunoblotting to evaluate the role of ERK/MAPK activation in the restoration of OPC proliferation following ESR-β activation, with the addition of ERK phosphorylation inhibitors U0126 or PD98059 to UBE3A-depleted OPCs, with or without AC-186 co-treatment (10 μM. 24 hours). The quantification of Ki67 expression and UBE3A levels, being normalized to β-tubulin (TUBB1) and compared to the siNC condition (value of 1.0). n=5 experiments. FIG. 20E: A schematic depicting the regulatory role of ESR-β signaling pathway in OPC proliferation, identified by combining genetic knockdown techniques and pharmacological interventions. Activation of ESR-β selectively triggers the ERK/MAPK pathway, as shown by ERK phosphorylation and the ERK substrate S6 activation, essential for cell proliferation. […] As applicable: statistical significance was determined using One-way ANOVA followed by post-hoc comparisons, with selected comparisons presented. Significance levels marked as *p<0.05. ** p<0.005. *** p<0.001. **** p<0.0001, ns not significant, across relevant comparisons.\nas §1\nCells were collected by fast spin down in centrifuge tubes before lysis in RIPA buffer (ThermoFisher, #89901) supplemented with proteinase inhibitor cocktail (Sigma-Aldrich, #5892791001) on ice. Lysates were then spun down at 15000 rpm for 10 mins, the supernatant was collected and mixed with 4× Laemmle sample buffer (Bio-Rad, #1610747) and cooked 10 mins before SDS-PAGE and transferred with Bio-Rad fast transfer system, the membranes were blocked for one hour in 1× Tris Buffered Saline (TBS) with 1% Casein buffer (Bio-Rad, #1610782) and incubated with primary antibodies overnight at 4 degrees. After 3 times washing in TBST washing buffers (ThermoFisher, #28352), the membranes were incubated with HRP conjugated antibodies and developed with Clarity Max™ Western ECL Substrate (Bio-Rad, #1705062) before being filmed in the iBright imaging system."}, "[4]": {"test_system": "iOPCs expressing Cas9 and a sgRNA targeting UBE3A", "experiment": "EdU incorporation in iOPCs with CRISPR/Cas9 UBE3A depletion (Lenti-sgUBE3A #1-3)", "conditions": "10 μM; any of the sgRNAs", "method": "The sgRNAs targeting UBE3A, and negative control were obtained from Applied Biological Materials Inc. Targeting sgRNA sequences against UBE3A are: sgRNA1, […]; sgRNA2, […]; sgRNA3, […]. These sgRNAs were integrated into the backbone of the negative control pLenti-U6-sgRNA-SFFV-Cas9-2A-Puro. All constructs were packaged into lentiviruses and concentrated by Lenti-X Concentrator (Takara Bio #631231). In each experiment, 5-10 μl of concentrated virus was administered into ˜70% confluent iOPCs cultures in 6-well plates. One day post-lentiviral transduction, iOPC cultures were treated with approximately 5 μg/ml Puromycin to isolate those iOPCs which are expressing Cas9/sgRNAs. Following a day of selection, the iOPCs were then seeded on gelatin-coated coverslips placed in 24-well plates at a density of 100,000 cells per well. After another day allowed for cell stabilization, treatment with either the vehicle control (DMSO), AC-186, DPN, or LY500307 commenced at a standard concentration of 10 μM. A final 24-hour period after this treatment saw the cells exposed to […] for three hours, preparing them for subsequent immunofluorescence staining.\nThe EdU labeling kit from ThermoFisher Scientific (#C10637) was used to trace cell proliferation by incubating iOPCs with 2 μM EdU for three hours before fixation. Following EdU incorporation, cells were fixed in 4% paraformaldehyde, blocked with normal serum, and stained with primary antibodies, Rabbit anti-Ki67 and Mouse anti-UBE3A. These steps were conducted according to the manual of the labeling kit and also detailed immunofluorescence staining protocols described below, to ensure specific detection of the proliferation marker Ki67 and the ubiquitin-protein ligase UBE3A in the cells for subsequent imaging analysis."}, "[5]": {"conditions": "siUBE3A cells, 10 μM, 24 hours, normalized to GAPDH"}}, "note": "“Also recorded” adds a separate entry of the source.", "data": [{"molecule": "CN1CCC[C@@H]1CCO[C@](C)(c1ccccc1)c1ccc(Cl)cc1", "note": "[clemastine, Clemastine, reference compound]", "values": [{"measurement": "oligodendrocyte differentiation (MAG), FIG. 25D", "setting": "[1]", "value": "enhanced differentiation"}, {"measurement": "oligodendrocyte differentiation (MAG, CNPase, MBP)", "setting": "[2]", "value": "positively influenced the differentiation process"}]}, {"molecule": "COc1cccc(-c2cc(=O)c3ccccc3o2)c1N", "note": "[PD98059, reference compound]", "values": [{"measurement": "effect of AC-186 to enhance proliferation of iOPCs with UBE3A knockdown (Ki67)", "setting": "UBE3A-deficient iOPCs", "value": "reduced"}, {"measurement": "ERK/MAPK pathway activation stimulated by AC-186", "setting": "[3]", "value": "inhibited"}]}, {"molecule": "Oc1ccc(-c2nc3cc(O)cc(Br)c3o2)cc1", "note": "[WAY-200070, reference compound]", "values": [{"measurement": "impact of UBE3A loss on OPC proliferation (FIG. 18F, 19G)", "setting": "UBE3A-deficient iOPCs", "value": "similarly mitigated the impact of UBE3A loss on OPC proliferation"}]}, {"molecule": "FGF: fibroblast growth factor; bFGF, human recombinant", "values": [{"measurement": "restoration of Ki67 expression in compound screen", "setting": "UBE3A-deficient iOPCs; 10 μM, 24 hours", "value": "restored; also recorded: effectively normalized proliferation levels; also recorded: Statistically significant; also recorded: capable of restoring Ki67 expression"}]}, {"molecule": "Oc1ccc([C@@H]2Oc3ccc(O)cc3[C@@H]3CCC[C@@H]32)cc1", "note": "[LY500307, reference compound]", "values": [{"measurement": "impact of UBE3A loss on OPC proliferation (FIG. 18F, 19G)", "setting": "UBE3A-deficient iOPCs", "value": "similarly mitigated the impact of UBE3A loss on OPC proliferation"}, {"measurement": "Ki67 expression (FIG. 19G)", "setting": "UBE3A-deficient iOPCs; [5]", "value": "increased expression"}, {"measurement": "PCNA expression (FIG. 19G)", "setting": "UBE3A-deficient iOPCs; [5]", "value": "increased expression"}, {"measurement": "number of EdU+ cells", "setting": "[4]", "value": "increased the number of EdU+ cells"}]}, {"molecule": "O=C1C[C@@H](c2ccc(O)cc2)Oc2cc(O)ccc21", "note": "[Liquiritigenin, reference compound]", "values": [{"measurement": "impact of UBE3A loss on OPC proliferation (FIG. 18F, 19G)", "setting": "UBE3A-deficient iOPCs", "value": "similarly mitigated the impact of UBE3A loss on OPC proliferation"}]}, {"molecule": "N#CC(=C(/N)Sc1ccccc1N)/C(C#N)=C(\\N)Sc1ccccc1N", "note": "[U0126, reference compound]", "values": [{"measurement": "effect of AC-186 to enhance proliferation of iOPCs with UBE3A knockdown (Ki67)", "setting": "UBE3A-deficient iOPCs", "value": "reduced"}, {"measurement": "ERK/MAPK pathway activation stimulated by AC-186", "setting": "[3]", "value": "inhibited"}]}, {"molecule": "B1", "values": [{"measurement": "restoration of Ki67 expression in compound screen", "setting": "UBE3A-deficient iOPCs; 10 μM, 24 hours", "value": "restored; also recorded: effectively normalized proliferation levels; also recorded: Statistically significant; also recorded: capable of restoring Ki67 expression"}]}]}
